# Test results published in ChEMBL document CHEMBL1158413, “Design, synthesis and evaluations of acridone derivatives using Candida albicans--search for MDR modulators led to the identification of an anti-candidiasis agent” (2009).
# Active and inactive are the calls of the source. The rule behind the calls is not given here.
# Experiments:
# [1] = tested on: DC3F/ADX; assay: Binding affinity to P-gp isolated from chinese hamster DC3F/ADX cells assessed as increase in ADP formation by drug-P-gp interaction assay relative to basal; format: cell-free; settings: Cricetulus griseus
# [2] = tested on: Candida albicans; assay: Antifungal activity against Candida albicans CAI4 after 48 hrs; format: functional; settings: CAI4, 48 h
# [3] = tested on: Candida albicans; assay: Antifungal activity against Candida albicans CAI4 at 0.2 mg/ml after 48 hrs by spot assay; format: functional, organism-based
# [4] = tested on: Candida albicans; assay: Antifungal activity against Candida albicans CAI4 at 0.5 mg/ml after 48 hrs by spot assay; format: functional, organism-based
# [5] = tested on: Candida albicans; assay: Antifungal activity against Candida albicans CAI4 at 6 ug/disk after 24 hrs by disk diffusion assay; format: functional; settings: CAI4, 24 h, read-out: DIZ
# [6] = tested on: Candida albicans; assay: Antifungal activity against Candida albicans CAI4 at 200 ug/disk after 24 hrs by disk diffusion assay; format: functional; settings: CAI4, 24 h, read-out: DIZ
# [7] = tested on: Candida albicans; assay: Antifungal activity against Candida albicans CAI4 at 160 ug/ml in presence of cell-wall toxin CFW; format: functional, organism-based
# [8] = tested on: Candida albicans; assay: Inhibition of cell-wall integrity in Candida albicans CAI4 assessed as increase in Rhodamine-6G efflux at 230 ug/ml in absence of glucose; format: functional, organism-based
# [9] = tested on: Candida albicans; assay: Antifungal activity against Candida albicans CAI4 at 0.313 mg/ml after 48 hrs by spot assay; format: functional, organism-based
# [10] = tested on: DC3F/ADX; assay: Binding affinity to P-gp isolated from chinese hamster DC3F/ADX cells assessed as increase in ADP formation at 0.05 uM by drug-P-gp interaction assay relative to basal; format: cell-free; settings: Cricetulus griseus
# [11] = tested on: Candida albicans; assay: Inhibition of cell-wall integrity in Candida albicans CAI4 assessed as ratio of glucose/ATP-driven Rhodamine-6G efflux to Rhodamine-6G efflux in absence of glucose/ATP at 230 ug/ml relative to control; format: functional, organism-based
# [12] = tested on: Candida albicans; assay: Inhibition of cell-wall integrity in Candida albicans CAI4 assessed as increase in Rhodamine-6G influx at 230 ug/ml; format: functional, organism-based
# [13] = tested on: Candida albicans; assay: Antifungal activity against Candida albicans CAI4 at 160 ug/ml in presence of cell-wall toxin CR; format: functional, organism-based
smiles,measurement,setting,value
O=C(O)c1cccc2c(=O)c3ccccc3n(CC3CO3)c12 (configuration not stated),Activity,[1],Active
O=C(O)c1cccc2c(=O)c3ccccc3n(CC(O)CN3CCOCC3)c12 (configuration not stated),MIC80,[2],132 µg/mL
same,Activity,[1],Active
same,Activity,[3],inactive
same,Activity,[4],inactive
OC(Cn1cncn1)(Cn1cncn1)c1ccc(F)cc1F [FLUCONAZOLE],zone of inhibition at 6 µg/disc,[5],15 mm
Cc1cccc2c1c(=O)c1ccccc1n2CC(O)CN1CCC(N2CCCCC2)CC1 (configuration not stated),Activity,[1],Active
Cc1cccc2c1c(=O)c1ccccc1n2CC(O)CN1CCOCC1 (configuration not stated),Activity,[1],Active
Cc1cccc2c1c(=O)c1ccccc1n2CC(O)CN1CCCCC1 (configuration not stated),Activity,[1],Active
Clc1ccc(COC(Cn2ccnc2)c2ccc(Cl)cc2Cl)c(Cl)c1 (configuration not stated) [MICONAZOLE],zone of inhibition at 6 µg/disc,[5],12 mm
O=C(O)c1cccc2c(=O)c3ccccc3n(CC(O)CN3CCCC3)c12 (configuration not stated),Activity,[1],Active
O=C(O)c1cccc2c(=O)c3ccccc3[nH]c12,Activity,[1],Active
O=C(O)c1cccc2c(=O)c3ccccc3n(CC(O)CN3CCCCC3)c12 (configuration not stated),MIC80,[2],405 µg/mL
same,Activity,[1],Active
same,Activity,[3],inactive
same,Activity,[4],inactive
Cc1cccc2c1c(=O)c1ccccc1n2CC(O)CN1CCCC1 (configuration not stated),Activity,[1],Active
O=C(O)c1cccc2c(=O)c3ccccc3n(CC(O)CN3CCC(N4CCCCC4)CC3)c12 (configuration not stated),zone of inhibition at 200 µg/disc,[6],10 mm
same,Activity,[7],Active
same,MIC80,[2],234 µg/mL
same,Activity,[8],Active
same,Activity,[9],Active
same,Activity,[10],33%
same,Activity,[11],inactive
same,Activity,[1],Active
same,Activity,[12],Active
same,Activity,[13],Active
